Series [1] can be described thus: Pulmonary Toxicity Assay (bronchoalveolar lavage protein). As to conditions: 24 hr post-dose. It counts as in vivo, rats. The method, then: The analysis of protein levels in bronchoalveolar lavage (BAL) fluid obtained from an animal were used to gauge pulmonary side effects. Increased levels of protein in BAL fluid were indicative of undesired edematous pulmonary effects, such as pulmonary edema.
Example 3 was administered orally to rats at doses of 0.3, 1.0, 10, 30 mg/kg and 2-amino-2-[2-(4-octylphenyl)ethyl]-1,3-propanediol, hydrochloride (CAS: 162359-56-0) was administered at 3.0 mg/kg as a solution in the vehicle. At 24 hours post dose, the rats were then euthanized by barbiturate overdose. The trachea was exposed by incision of the overlying skin and then cannulated. The lungs were lavaged with 4 mL of saline. The recovered lavage fluid was assayed for total protein content. The concentration of the BAL protein in the recovered BAL fluid was determined on an Advia 1800 Chemistry Analyzer (Siemens Healthcare Diagnostics). The results represent the average results of all animals within each treatment group (n=2-4).

In another series the test system is blood lymphocytes. Description: Blood Lymphocyte Reduction (BLR) assay in rodent. The class given is in vivo, Lewis rats. As to conditions: 24 hr post-dose; for Percent reduction vs. vehicle control: Table C study.
For series [2], the target named is T1, S1P1 (Homo sapiens (Human), UniProt P21453). Nature of the series: S1P1 Binding Assay (33P-S1P ligand competition, CHO membranes). The note with it: membranes from CHO cells expressing human S1P1. The procedure: Membranes were prepared from CHO cells expressing human S1P1. Cells pellets (1×10^9 cells/pellet) were suspended in buffer containing 20 mM HEPES (4-(2-hydroxyethyl)-1-piperazineethanesulfonic acid), pH 7.5, 50 mM NaCl, 2 mM EDTA (ethylenediamine tetraacetic acid) and Protease Inhibitor cocktail (Roche), and disrupted on ice using the Polytron homogenizer. The homogenate was centrifuged at 20,000 rpm (48,000 g) and the supernatant was discarded. The membrane pellets were resuspended in buffer containing 50 mM HEPES, pH 7.5, 100 mM NaCl, 1 mM MgCl2, 2 mM EDTA and stored in aliquots at −80° C. after protein concentration determination.
Membranes (2 μg/well) and 0.03 nM final concentration of ^33P-S1P ligand (1 mCi/ml, Perkin Elmer or American Radiolabeled Chemicals) diluted in assay buffer (50 mM HEPES, pH7.4, 5 mM MgCl2, 1 mM CaCl2), 0.5% fatty acid free BSA (bovine serum albumin), 1 mM NaF) were added to the compound plates (384 Falcon v-bottom plate (0.5 μl/well in a 11 point, 3-fold dilution). Binding was performed for 45 minutes at room temperature, terminated by collecting the membranes onto 384-well Millipore FB filter plates, and radioactivity was measured by TOPCOUNT®. The competition data of the test compounds over a range of concentrations was plotted as percentage inhibition of radioligand specific binding. The IC50 is defined as the concentration of competing ligand needed to reduce specific binding by 50%.

Series [3] concerns the target T1, S1P1. Description: Receptor [35S] GTPγS Binding Assay, S1P1. The class given is biochemical. The note with it: membranes from S1P1/CHO cells. The procedure: (§1) Receptor [^35S] GTPγS Binding Assays:
(§2) Compounds were loaded in a 384 Falcon v-bottom plate (0.5 μl/well in an 11 point, 3-fold dilution). Membranes prepared from S1P1/CHO cells or EDG3-Gal5-bla HEK293T cells (EDG3 equivalent S1P3) were added to the compound plate ([…], final protein 3 μg/well) with MULTIDROP®. [^35S]GTP (1250 Ci/mmol, Perkin Elmer) was diluted in assay buffer: 20 mM HEPES, pH7.5, 10 mM MgCl2, 150 mM NaCl, 1 mM EGTA (ethylene glycol tetraacetic acid), 1 mM DTT (Dithiothreitol), 10 μM GDP, 0.1% fatty acid free BSA, and 10 μg/ml Saponin to 0.4 nM. 40 μl of the [35S] GTP solution was added to the compound plate with a final concentration of 0.2 nM. The reaction was kept at room temperature for 45 min. At the end of incubation, all the mixtures in the compound plate were transferred to Millipore 384-well FB filter plates via the VELOCITY11 ® Vprep liquid handler. The filter plate was washed with water 4 times by using the manifold Embla plate washer and dried at 60° C. for 45 min. MicroScint 20 scintillation fluid (30 μl) was added to each well for counting on the Packard TOPCOUNT®. EC50 is defined as the agonist concentration that corresponds to 50% of the Ymax (maximal response) obtained for each individual compound tested.
A smaller value for GTPγS S1P1 EC50 value indicated greater activity for the compound in the GTPγS S1P1 binding assay. Thus the compounds of the present invention may be used in treating, preventing, or curing various S1P1 receptor-related conditions. The compounds have potential use in treating, preventing, or curing autoimmune and inflammatory diseases such as multiple sclerosis, rheumatoid arthritis, inflammatory bowel disease, lupus, psoriasis, or minimizing or reducing rejection of transplanted organs.

Another series addresses S1P3 (Homo sapiens (Human), UniProt Q99500). Description: Receptor [35S] GTPγS Binding Assay, S1P3. The class given is biochemical. As to conditions: membranes from EDG3-Gal5-bla HEK293T cells. The method, then:
as §1, §2
On the technique in general: Binding of GTPγS marks nucleotide exchange on a G protein.

Each structure is given as a SMILES string. pEC50, pIC50: −log10 of the molar value.

T1 sequence (P21453 whole entry): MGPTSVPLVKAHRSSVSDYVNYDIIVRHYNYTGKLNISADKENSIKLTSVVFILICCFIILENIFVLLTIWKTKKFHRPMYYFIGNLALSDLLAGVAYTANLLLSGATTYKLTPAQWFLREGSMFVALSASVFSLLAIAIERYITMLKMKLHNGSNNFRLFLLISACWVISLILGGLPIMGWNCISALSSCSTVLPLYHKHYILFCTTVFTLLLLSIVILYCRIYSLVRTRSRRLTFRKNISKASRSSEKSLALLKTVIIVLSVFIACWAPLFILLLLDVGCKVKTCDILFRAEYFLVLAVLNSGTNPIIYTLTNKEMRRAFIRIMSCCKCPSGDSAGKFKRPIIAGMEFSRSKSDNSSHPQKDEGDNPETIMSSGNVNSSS
Sequence of S1P3 (Q99500 whole entry): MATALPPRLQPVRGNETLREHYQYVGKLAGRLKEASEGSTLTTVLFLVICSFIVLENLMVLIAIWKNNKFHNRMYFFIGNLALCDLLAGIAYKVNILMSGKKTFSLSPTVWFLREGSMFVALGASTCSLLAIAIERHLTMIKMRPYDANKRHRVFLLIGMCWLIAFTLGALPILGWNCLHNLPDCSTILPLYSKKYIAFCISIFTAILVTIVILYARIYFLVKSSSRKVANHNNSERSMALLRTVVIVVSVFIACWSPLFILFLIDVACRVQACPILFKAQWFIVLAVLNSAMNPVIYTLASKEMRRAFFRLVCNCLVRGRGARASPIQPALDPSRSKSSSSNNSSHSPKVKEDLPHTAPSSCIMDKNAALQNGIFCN

Consider `CC(=NOCCc1ccccc1)c1ccc(C2CCC(N)(CO)C2)cc1.Cl` (stereo not drawn) [Example 3, 1-(4-(3-amino-3-(hydroxymethyl)cyclopentyl)phenyl)ethanone O-phenethyl Oxime], for which the “Relative BAL protein vs. control” value in series [1] (0.3 mg/kg oral) stood at 0.8; in series [1] (1 mg/kg oral) it was 0.8; in series [1] (10 mg/kg oral), 1.2; in series [1] (30 mg/kg oral), 1.3. For the same compound, the “Percent reduction vs. vehicle control” value in the series on blood lymphocytes (0.3 mg/kg) came out at 29%; with blood lymphocytes (1 mg/kg) it was 62%; in the series with blood lymphocytes (10 mg/kg) it was 85%; in the series with blood lymphocytes (30 mg/kg) it was 85%. Further, the “level of lymphocyte reduction (in words)” value with blood lymphocytes (10 mg/kg and 30 mg/kg) is “maximal level of lymphocyte reduction comparable to the reduction shown by FTY”.

The compound `CC(=NOCC1CC1)c1ccc([C@@H]2CC[C@](N)(COP(=O)(O)O)C2)cc1` [Example 38, ((1R,3R)-1-amino-3-(4-(1-((cyclopropylmethoxy)imino)ethyl)phenyl)cyclopentyl)methyl Dihydrogen Phosphate] gave a pIC50 at S1P1 [2] of 6.55. Also, the pEC50 on S1P1 [3] and on S1P3 was under 4.52 throughout.

Consider `CC(=NOCCOc1ccccc1)c1ccc([C@@H]2CC[C@](N)(COP(=O)(O)O)C2)cc1` [Example 46, ((1R,3R)-1-amino-3-(4-(1-((2-phenoxyethoxy)imino)ethyl)phenyl)cyclopentyl) methyl dihydrogen phosphate], for which, on S1P1 [2], the negative logarithm of the IC50 (pIC50) is 8.28. Moreover, the pEC50 on S1P1 [3] is 7.95; at S1P3, under 4.22.

Consider `C/C(=N\OCCCc1ccccc1)c1ccc(C(=O)N2CCCC(N)(COP(=O)(O)O)C2)cc1` (single isomer, unassigned) [Example 68, (E)-(3-amino-1-(4-(1-((3-phenylpropoxy)imino)ethyl)benzoyl)piperidin-3-yl)methyl dihydrogen phosphate], for which the pIC50 on S1P1 [2] was 6.44. For the same compound, the pEC50 on S1P1 [3] is 6.40; at S1P3, 5.03.

In turn, `C/C(=N\OCCCc1ccccc1)c1ccc(C(=O)N2CCC(N)(COP(=O)(O)O)C2)cc1` (single isomer, unassigned) [Example 62, (E)-(3-amino-1-(4-(1-((3-phenylpropoxy)imino)ethyl)benzoyl)pyrrolidin-3-yl)methyl dihydrogen phosphate] had a negative-log IC50 (pIC50) at S1P1 [2] of 5.83. The pEC50 was 6.30 at S1P1 [3] and under 5.20 on S1P3.

Turning to `C/C(=N\OCc1ccc(C2CCCCC2)c(C(F)(F)F)c1)c1ccc([C@@H]2CC[C@](N)(COP(=O)(O)O)C2)cc1` [Example 40, ((1R,3R)-1-amino-3-(4-((E)-1-(((4-cyclohexyl-3-(trifluoromethyl)benzyl)oxy)imino)ethyl)phenyl)cyclopentyl) methyl dihydrogen phosphate], at S1P1 [2], the negative logarithm of the IC50 (pIC50) was 7.55. Also, the negative-log EC50 (pEC50) is 7.42 on S1P1 [3] and under 4.22 on S1P3.

As for `C/C(=N\OCCCc1ccccc1)c1ccc(S(=O)(=O)N2CCC(N)(COP(=O)(O)O)CC2)cc1` [Example 71, (E)-(4-amino-1-((4-(1-((3-phenylpropoxy)imino)ethyl)phenyl)sulfonyl)piperidin-4-yl)methyl dihydrogen phosphate], at S1P1 [2], the negative logarithm of the IC50 (pIC50) was 6.66. Also, the pEC50 was 6.62 at S1P1 [3] and under 4.74 on S1P3.

Turning to `C/C(=N\OCCCc1ccccc1)c1ccc([C@@H]2CC[C@](N)(COP(=O)(O)O)C2)cc1` [Example 41, ((1R,3R)-1-amino-3-(4-((E)-1-((3-phenylpropoxy)imino)ethyl)phenyl)cyclopentyl) methyl dihydrogen phosphate], on S1P1 [2], the negative logarithm of the IC50 (pIC50) is 7.70. Also, the pEC50 on S1P1 [3] was 7.60; on S1P3 it was 6.11.

At S1P1 [2], `C/C(=N\OCc1ccc(C2CCCCC2)c(C(F)(F)F)c1)c1ccc(C(=O)N2CCCC(N)(COP(=O)(O)O)C2)cc1` (single isomer, unassigned) [Example 66, (E)-(3-amino-1-(4-(1-(((4-cyclohexyl-3-(trifluoromethyl)benzyl)oxy)imino)ethyl)benzoyl)piperidin-3-yl)methyl dihydrogen phosphate] showed a pIC50 of 7.21. The results for the negative-log EC50 (pEC50) on S1P1 [3] and on S1P3 were 6.71 and 5.03, respectively.

For the compound `CC/C(=N\OCCCc1ccccc1)c1ccc(C(=O)N2CCC(N)(COP(=O)(O)O)C2)cc1` (single isomer, unassigned) [Example 64, (E)-(3-amino-1-(4-(1-((3-phenylpropoxy)imino)propyl)benzoyl)pyrrolidin-3-yl) methyl dihydrogen phosphate], on S1P1 [2], the pIC50 was 5.60. The negative-log EC50 (pEC50) at S1P1 [3] is 6.30; at S1P3 it was under 5.20.

Compound `NC1(COP(=O)(O)O)CCN(C(=O)c2ccc(/C(=N/OCCCc3ccccc3)C(F)(F)F)cc2)C1` (stereo not drawn) [Example 65, (Z)-(3-amino-1-(4-(2,2,2-trifluoro-1-((3-phenylpropoxy)imino)ethyl)benzoyl)pyrrolidin-3-yl)methyl dihydrogen phosphate] gave a negative logarithm of the IC50 (pIC50) at S1P1 [2] of 5.70. Moreover, the figures for the pEC50 at S1P1 [3] and on S1P3 were 6.20 and under 5.20, respectively.

Consider `C/C(=N\OCc1ccc(C2CCCCC2)c(C(F)(F)F)c1)c1ccc(S(=O)(=O)N2CCC(N)(COP(=O)(O)O)CC2)cc1` [Example 70, (E)-(4-amino-1-((4-(1-(((4-cyclohexyl-3-(trifluoromethyl)benzyl)oxy)imino)ethyl)phenyl)sulfonyl)piperidin-4-yl) methyl dihydrogen phosphate], for which the pIC50 on S1P1 [2] is 6.04. In addition, the pEC50 at S1P1 [3] was 6.39; at S1P3, under 4.74.

Usually pIC50 stands for the negative decadic logarithm of the IC50, by convention in mol/L. Broadly, the pEC50 is the EC50 on a negative log10 scale, so that one unit is a factor of ten. Read a low pEC50 as a high EC50.

(Values after patent US11059784B2, “Oxime ether compounds” (BRISTOL-MYERS SQUIBB COMPANY, priority 2017, dated 2021).)
